Results as given in patent publication US20100249093A1, “Substituted Heteroarylpiperidine Derivatives As Melanocortin-4 Receptor Modulators” (SANTHERA PHARMACEUTICALS (SCHWEIZ) AG, priority 2007, published 2010).

Assays:
[1] = target: T1, human melanocortin-4 receptor (MC-4R) (Homo sapiens, UniProt P32245); test: Functional assay: agonistic activity, cAMP production in membrane preparations compared with NDP-alpha-MSH, fluorescence polarization; assay type: biochemical; details: for Emax: cAMP produced compared to stimulation with NDP-alpha-MSH, read-out: % activation functional assay
T1 construct: expressed in transfected cells; host or cells: HEK293
T1 sequence (P32245 whole entry): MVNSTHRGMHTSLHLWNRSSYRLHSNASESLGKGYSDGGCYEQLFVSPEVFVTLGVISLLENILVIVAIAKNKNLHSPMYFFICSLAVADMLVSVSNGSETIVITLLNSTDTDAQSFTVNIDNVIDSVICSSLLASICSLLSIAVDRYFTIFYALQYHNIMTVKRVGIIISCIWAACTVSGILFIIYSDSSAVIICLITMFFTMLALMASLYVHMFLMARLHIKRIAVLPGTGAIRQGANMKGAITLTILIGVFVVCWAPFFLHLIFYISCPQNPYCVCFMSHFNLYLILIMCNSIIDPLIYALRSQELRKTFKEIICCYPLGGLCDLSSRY

[2] = target: T1, human melanocortin-4 receptor (MC-4R); test: Membrane binding assay: competition with fluorescence labeled NDP-alpha-MSH, fluorescence polarization; details: HEK293 cell membrane preparations expressing human MC-4R, read-out: hMC-4R binding assay IC50

Emax [1] [%]	IC50 [2] [nM]	EC50 ([1]; cAMP production, membrane preparations from HEK293 cells expressing human MC-4R, read-out: hMC-4R functional assay EC50) [nM]	SMILES
0	100 to 1000		CC[C@H](COc1ccncc1C1CCN(C(=O)[C@@H](Cc2ccc(Cl)cc2Cl)NC(=O)N2CCCC2)CC1)N(C)C [Example 13]
0	≤ 100		C[C@@H](CN(C)C)Oc1cccnc1C1CCN(C(=O)[C@@H](Cc2ccc(Cl)cc2Cl)NC(=O)N2CCCC2)CC1 [Example 15]
0	≤ 100		CC[C@H](COc1cccnc1C1CCN(C(=O)[C@@H](Cc2ccc(Cl)cc2Cl)NC(=O)N2CCCC2)CC1)N(C)C [Example 18]
0	≤ 100		CN(C)C(C)(C)COc1cccnc1C1CCN(C(=O)[C@@H](Cc2ccc(Cl)cc2Cl)NC(=O)N2CCCC2)CC1 [Example 20]
0	≤ 100		C[C@H](Oc1cccnc1C1CCN(C(=O)[C@@H](Cc2ccc(Cl)cc2Cl)NC(=O)N2CCCC2)CC1)[C@@H](C)N(C)C [Example 22]
0	≤ 100		C[C@H](COc1cccnc1C1CCN(C(=O)[C@@H](Cc2ccc(Cl)cc2Cl)NC(=O)N2CCCC2)CC1)N(C)C [Example 25]
0	≤ 100		CC[C@H](COc1cc(C)cnc1C1CCN(C(=O)[C@@H](Cc2ccc(Cl)cc2Cl)NC(=O)N2CCCC2)CC1)N(C)C [Example 27]
-8	≤ 100		CC(C)[C@H](COc1cccnc1C1CCN(C(=O)[C@@H](Cc2ccc(Cl)cc2Cl)NC(=O)N2CCCC2)CC1)N(C)C [Example 30]
36	≤ 100	> 1000	CC[C@@H](CN(C)C)Oc1cccnc1C1CCN(C(=O)[C@@H](Cc2ccc(Cl)cc2Cl)NC(=O)N2CCCC2)CC1 [Example 32]
0	100 to 1000		CC[C@@H](COc1cccnc1C1CCN(C(=O)[C@@H](Cc2ccc(Cl)cc2Cl)NC(=O)N2CCCC2)CC1)N(C)C [Example 33]
-3	> 1000		CC[C@H](CN(C)C)Oc1cccnc1C1CCN(C(=O)[C@@H](Cc2ccc(Cl)cc2Cl)NC(=O)N2CCCC2)CC1 [Example 34]
7	100 to 1000		CC[C@H](COc1c(C)ccnc1C1CCN(C(=O)[C@@H](Cc2ccc(Cl)cc2Cl)NC(=O)N2CCCC2)CC1)N(C)C [Example 35]
8	≤ 100		CC[C@H](COc1cc(OC)cnc1C1CCN(C(=O)[C@@H](Cc2ccc(Cl)cc2Cl)NC(=O)N2CCCC2)CC1)N(C)C [Example 36]

The next lines start with the molecule.

SMILES	Emax [1] [%]	IC50 [2] [nM]	EC50 ([1]; cAMP production, membrane preparations from HEK293 cells expressing human MC-4R, read-out: hMC-4R functional assay EC50) [nM]
Cc1ccc(C2CCN(C(=O)[C@@H](Cc3ccc(Cl)cc3Cl)NC(=O)N3CCCC3)CC2)c(NCCN2CCCC2)n1 [Example 1]	0	≤ 100	
Cc1ccc(C2CCN(C(=O)[C@@H](Cc3ccc(Cl)cc3Cl)NC(=O)N3CCCC3)CC2)c(N(C)CCN2CCCC2)n1 [Example 2]	0	≤ 100	
Cc1cnc(N(C)CCN2CCCC2)c(C2CCN(C(=O)[C@@H](Cc3ccc(Cl)cc3Cl)NC(=O)N3CCCC3)CC2)c1 [Example 3]	0	100 to 1000	
Cc1ccc(C2CCN(C(=O)[C@@H](Cc3ccc(Cl)cc3Cl)NC(=O)N3CCCC3)CC2)c(N2CCN(C)CC2)n1 [Example 4]	0	≤ 100	
O=C(N[C@H](Cc1ccc(Cl)cc1Cl)C(=O)N1CCC(c2cccnc2OCCN2CCCC2)CC1)N1CCCC1 [Example 5]	0	≤ 100	
Cc1ccc(C2CCN(C(=O)[C@@H](Cc3ccc(Cl)cc3Cl)NC(=O)N3CCCC3)CC2)c(OCCN2CCCC2)n1 [Example 6]	0	≤ 100	
CC[C@@H](CN1CCCC1)Oc1ncccc1C1CCN(C(=O)[C@@H](Cc2ccc(Cl)cc2Cl)NC(=O)N2CCCC2)CC1 [Example 7]	0	≤ 100	
CC[C@@H](CN1CCCC1)Oc1ncc(C)cc1C1CCN(C(=O)[C@@H](Cc2ccc(Cl)cc2Cl)NC(=O)N2CCCC2)CC1 [Example 9]	0	≤ 100	
O=C(N[C@H](Cc1ccc(Cl)cc1Cl)C(=O)N1CCC(c2cccnc2O[C@H]2CN3CCC2CC3)CC1)N1CCCC1 [Example 10]	0	100 to 1000	
CC[C@@H](CN1CCCC1)Oc1cnccc1C1CCN(C(=O)[C@@H](Cc2ccc(Cl)cc2Cl)NC(=O)N2CCCC2)CC1 [Example 11]	0	≤ 100	
CC[C@@H](CN1CCCC1)Oc1ccncc1C1CCN(C(=O)[C@@H](Cc2ccc(Cl)cc2Cl)NC(=O)N2CCCC2)CC1 [Example 12]	0	≤ 100	
O=C(N[C@H](Cc1ccc(Cl)cc1Cl)C(=O)N1CCC(c2ncccc2OCCN2CCCC2)CC1)N1CCCC1 [Example 14]	0	100 to 1000	
C[C@@H](CN1CCCC1)Oc1cccnc1C1CCN(C(=O)[C@@H](Cc2ccc(Cl)cc2Cl)NC(=O)N2CCCC2)CC1 [Example 16]	0	≤ 100	
CC[C@@H](CN1CCCC1)Oc1cccnc1C1CCN(C(=O)[C@@H](Cc2ccc(Cl)cc2Cl)NC(=O)N2CCCC2)CC1 [Example 17]	0	≤ 100	
CN1CCC[C@H](Oc2cccnc2C2CCN(C(=O)[C@@H](Cc3ccc(Cl)cc3Cl)NC(=O)N3CCCC3)CC2)C1 [Example 21]	0	≤ 100	
CN1CCN(c2cccnc2C2CCN(C(=O)[C@@H](Cc3ccc(Cl)cc3Cl)NC(=O)N3CCCC3)CC2)CC1 [Example 23]	0	100 to 1000	
CC[C@H](COc1cc(C)cnc1C1CCN(C(=O)[C@@H](Cc2ccc(Cl)cc2Cl)NC(=O)N2CCCC2)CC1)N1CCCC1 [Example 24]	0	≤ 100	
O=C(N[C@H](Cc1ccc(Cl)cc1Cl)C(=O)N1CCC(c2ncccc2O[C@H]2CN3CCC2CC3)CC1)N1CCCC1 [Example 26]	0	100 to 1000	
CN1CCN(Cc2cccnc2C2CCN(C(=O)[C@@H](Cc3ccc(Cl)cc3Cl)NC(=O)N3CCCC3)CC2)CC1 [Example 28]	0	100 to 1000	
O=C(N[C@H](Cc1ccc(Cl)cc1Cl)C(=O)N1CCC(c2ncccc2OC2CN3CCC2CC3)CC1)N1CCCC1 (stereo partly drawn) [Example 29]	0	100 to 1000	
CC[C@@H](COc1cccnc1C1CCN(C(=O)[C@@H](Cc2ccc(Cl)cc2Cl)NC(=O)N2CCCC2)CC1)N1CCCC1 [Example 31]	-3	≤ 100	
CN1CCN(CCOc2cccnc2C2CCN(C(=O)[C@@H](Cc3ccc(Cl)cc3Cl)NC(=O)N3CCCC3)CC2)CC1 [Example 37]	-2	100 to 1000	
CN1CCC(Oc2cccnc2C2CCN(C(=O)[C@@H](Cc3ccc(Cl)cc3Cl)NC(=O)N3CCCC3)CC2)CC1 [Example 38]	-5	100 to 1000	
CN1CCN(Cc2cc(Cl)cnc2C2CCN(C(=O)[C@@H](Cc3ccc(Cl)cc3Cl)NC(=O)N3CCCC3)CC2)CC1 [Example 39]	-13	≤ 100	
CC[C@H](COc1cc(Cl)cnc1C1CCN(C(=O)[C@@H](Cc2ccc(Cl)cc2Cl)NC(=O)N2CCCC2)CC1)N1CCCC1 [Example 40]	-11	≤ 100	
CN1CC(Oc2cccnc2C2CCN(C(=O)[C@@H](Cc3ccc(Cl)cc3Cl)NC(=O)N3CCCC3)CC2)C1 [Example 41]	-1	100 to 1000	
CN1CC[C@H](Oc2cccnc2C2CCN(C(=O)[C@@H](Cc3ccc(Cl)cc3Cl)NC(=O)N3CCCC3)CC2)C1 [Example 42]	-1	100 to 1000	
